Measured values: patent US20210061684A1 (HIYOSHI CORPORATION, priority 2018, published 2021)
Like-named read-outs stand apart in the source and are kept apart here.

Key:
[1] = test system: Legionella
[2] = test system: Legionella; remark: listed apart in the source

| Substance | effect on Legionella at low concentration [1] | growth of Legionella [1] | effect on Legionella at low concentration [2] | growth of Legionella [2] | decrease of the number of bacteria [1] |
| --- | --- | --- | --- | --- | --- |
| ammonium iron (II) sulfate hexahydrate | a sufficient effect was obtained | greatly suppressed | – | – | – |
| iron (III) chloride hexahydrate | – | – | an effect was obtained | greatly suppressed | – |
| iron (II) sulfate heptahydrate | the effect was observed | greatly suppressed | an effect was obtained | greatly suppressed | at least 3 orders of magnitude |
| ammonium iron (III) sulfate dodecahydrate | a sufficient effect was obtained | greatly suppressed | – | – | – |
